# In publication PMC10716780, “The multistep oxidation of cholesterol to pregnenolone by human cytochrome P450 11A1 is highly processive” (The Journal of Biological Chemistry, 2023):
# Experiments:
# P450 11A1 (CYP11A1) = target: T1, P450 11A1 (CYP11A1) (Homo sapiens, UniProt P05108); experiment: Kinetic isotope effect assay, disappearance of d0- and d3-cholesterol under single-turnover conditions; assay type: biochemical; settings: human, pH 7.4; 5 μM P450, 5 μM sterol, low Adx single-turnover; read-out: sterol half-life (t1/2) (converted)
# T1 construct: M A S T R S P R P F N E I P S P G D N; Met-Ala (N-terminal start residues in place of the transit peptide and Ile40) (N); made in house; host or cells: E. coli (P450 11A1 in C41(DE3); Adx and AdR in E. coli)
# T1 sequence (P05108 41-521 limits assumed): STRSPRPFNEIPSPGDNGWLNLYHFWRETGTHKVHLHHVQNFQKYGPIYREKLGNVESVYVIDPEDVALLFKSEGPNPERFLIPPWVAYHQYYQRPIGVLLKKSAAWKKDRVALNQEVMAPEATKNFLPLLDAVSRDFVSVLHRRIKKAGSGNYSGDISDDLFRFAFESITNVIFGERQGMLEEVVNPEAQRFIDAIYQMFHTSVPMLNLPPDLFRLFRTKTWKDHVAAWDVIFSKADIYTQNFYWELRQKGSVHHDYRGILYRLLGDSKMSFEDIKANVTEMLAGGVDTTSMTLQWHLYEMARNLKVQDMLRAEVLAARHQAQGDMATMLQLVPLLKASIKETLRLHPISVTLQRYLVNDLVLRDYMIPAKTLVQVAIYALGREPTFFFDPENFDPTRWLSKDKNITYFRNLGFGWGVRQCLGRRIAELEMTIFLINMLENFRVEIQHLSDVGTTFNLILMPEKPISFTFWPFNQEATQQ
# T1 sequence (P00257 59-186 partner): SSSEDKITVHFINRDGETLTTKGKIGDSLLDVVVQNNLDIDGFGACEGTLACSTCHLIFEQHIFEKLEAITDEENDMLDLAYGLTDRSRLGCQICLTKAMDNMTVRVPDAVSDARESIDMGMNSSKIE
# Experimental: (§1) P450 11A1 incubations were performed under (low Adx) single-turnover conditions (5 μM P450, 5 μM cholesterol; see Experimental procedures) with d0- (authentic, unlabeled) and d3-cholesterol, and the disappearance of each was monitored by LC-atmospheric pressure chemical ionization-MS (m/z 369.3516 and 372.3705, respectively). In theory, if C-H bond breaking were rate-limiting in the initial hydroxylation then the rate of d3-cholesterol consumption would be slower relative to the d0 compound due to the increased strength of a C-D bond.
# The kinetic isotope experiment was designed similarly to the benchtop experiment described above, but with some modifications. P450 11A1 (5 μM) was reconstituted with the redox partners AdR (10 μM) and Adx (5 μM) on ice (10 min) prior to dilution in potassium Hepes (50 mM, pH 7.4) and H2O and addition of d3-cholesterol substrate (5 μM). […]
# Samples (held at 4 °C) were injected (10 μl) using a Waters Acquity UPLC system on a Acquity BEH octadecylsilane (C18) 2.1 mm × 50 mm (1.7 μm) UPLC column (held at 25 °C) with a flow rate of 0.5 ml min^−1 using an isocratic mobile phase of CH3CN (only). The column eluate was subjected to atmospheric pressure chemical ionization and analyzed using a Thermo Fisher Scientific LTQ XL Orbitrap mass spectrometer instrument operating in positive mode, scanning from m/z 100 to 500, with a resolution setting of 120,000. […]
# human P450 11A1 [1] = tested on: human P450 11A1; parameters: method as in PMID 33271253; settings: surface plasmon resonance ref 46; cited from earlier work
# human P450 11A1 [2] = target: T2, human P450 11A1 (Homo sapiens, UniProt P05108); experiment: Kinetic isotope effect assay, disappearance of d0- and d3-cholesterol under single-turnover conditions; assay type: biochemical; parameters: M A S T R S P R P F N E I P S P G D N; Met-Ala (N-terminal start residues in place of the transit peptide and Ile40) (N); made in house; host or cells: E. coli (P450 11A1 in C41(DE3); Adx and AdR in E. coli); settings: 5 μM P450, 5 μM sterol, exponential decay fit
# T2 sequence (P05108 41-521 limits assumed): T1 sequence (P05108 41-521 limits assumed)
# T2 sequence (P00257 59-186 partner): T1 sequence (P00257 59-186 partner)
# Experimental: as §1
# The kinetic isotope experiment was designed similarly to the benchtop experiment described above, but with some modifications. P450 11A1 (5 μM) was reconstituted with the redox partners AdR (10 μM) and Adx (5 μM) on ice (10 min) prior to dilution in potassium Hepes (50 mM, pH 7.4) and H2O and addition of d3-cholesterol substrate (5 μM). The mixture was preincubated (5 min) prior to initiation with NADPH (2.5 mM, from 25 mM in potassium Hepes (50 mM, pH 7.4)) thus bringing all components to their desired final concentrations. After completing the desired incubation time, an aliquot (500 μl) was removed from the incubation and added to vials containing CH2Cl2 (5 ml) and the vials were mixed with a vortex device and placed on ice. The quenched reactions were centrifuged (10^3g, 5 min, 23 °C) to separate layers, and the organic (bottom) layers were removed (4 ml) and transferred to fresh glass vials. The extraction process was repeated and the two extracts (2 × 4 ml) from each sample were combined to maximize product recovery. Samples (8 ml) were brought to dryness under a stream of nitrogen, and the dried residues were dissolved in CH3OH (25 μl) and transferred to autosampler vials for analysis.
# Samples (held at 4 °C) were injected (10 μl) using a Waters Acquity UPLC system on a Acquity BEH octadecylsilane (C18) 2.1 mm × 50 mm (1.7 μm) UPLC column (held at 25 °C) with a flow rate of 0.5 ml min^−1 using an isocratic mobile phase of CH3CN (only). The column eluate was subjected to atmospheric pressure chemical ionization and analyzed using a Thermo Fisher Scientific LTQ XL Orbitrap mass spectrometer instrument operating in positive mode, scanning from m/z 100 to 500, with a resolution setting of 120,000. Data were processed using Xcalibur QualBrowser (Thermo Fisher Scientific) software (version 2.0.7; https://www.thermofishcer.com/order/catalog/product/OPTON).
smiles,measurement,setting,value
CC(C)CCC[C@@H](C)[C@H]1CC[C@H]2[C@@H]3CC=C4C[C@@H](O)CC[C@]4(C)[C@H]3CC[C@]12C [Cholesterol],half-life at 5 μM,P450 11A1 (CYP11A1),20 s
same,decrease in Kd of P450 11A1-Adx complex in the presence of cholesterol,human P450 11A1 [1],~3 fold
same,rate of disappearance,human P450 11A1 [2],0.035 s⁻¹
